Data as given in paper PMC9471048, “The signaling and selectivity of α‐adrenoceptor agonists for the human α2A, α2B and α2C‐adrenoceptors and comparison with human α1 and β‐adrenoceptors” (Pharmacology Research & Perspectives, 2022).
Read-outs that look alike come from different tables or passages of the source.

Columns and labels:
human α2C‐adrenoceptor [1] = molecular target: T1, human α2C‐adrenoceptor (Homo sapiens, UniProt P18825); test: ERK1/2‐phosphorylation in CHO‐α2C cells; type: cell-based; set-up: expressed in transfected cells; host or cells: CHO-K1 with CRE-SPAP reporter; details: CHO‐α2C cells; for % 10 μM PDBu, ERK1/2‐phosphorylation: maximum response compared to 10 μM PDBu, mean ± SEM
T1 sequence (P18825 1-462): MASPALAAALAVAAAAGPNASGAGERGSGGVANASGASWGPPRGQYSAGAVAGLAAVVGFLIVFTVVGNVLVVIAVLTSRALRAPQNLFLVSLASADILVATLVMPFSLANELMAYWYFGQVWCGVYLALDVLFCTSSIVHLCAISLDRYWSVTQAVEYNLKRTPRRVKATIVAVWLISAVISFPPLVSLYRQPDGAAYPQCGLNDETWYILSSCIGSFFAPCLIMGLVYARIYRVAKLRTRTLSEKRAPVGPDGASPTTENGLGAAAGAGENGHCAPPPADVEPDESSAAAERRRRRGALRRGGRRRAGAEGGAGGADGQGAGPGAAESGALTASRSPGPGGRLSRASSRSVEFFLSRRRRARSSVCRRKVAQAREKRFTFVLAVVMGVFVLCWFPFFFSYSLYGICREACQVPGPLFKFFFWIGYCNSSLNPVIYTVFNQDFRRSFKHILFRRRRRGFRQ

α1A‐adrenoceptor = molecular target: T2, α1A‐adrenoceptor (Homo sapiens, UniProt P35348)
T2 sequence (P35348 1-466): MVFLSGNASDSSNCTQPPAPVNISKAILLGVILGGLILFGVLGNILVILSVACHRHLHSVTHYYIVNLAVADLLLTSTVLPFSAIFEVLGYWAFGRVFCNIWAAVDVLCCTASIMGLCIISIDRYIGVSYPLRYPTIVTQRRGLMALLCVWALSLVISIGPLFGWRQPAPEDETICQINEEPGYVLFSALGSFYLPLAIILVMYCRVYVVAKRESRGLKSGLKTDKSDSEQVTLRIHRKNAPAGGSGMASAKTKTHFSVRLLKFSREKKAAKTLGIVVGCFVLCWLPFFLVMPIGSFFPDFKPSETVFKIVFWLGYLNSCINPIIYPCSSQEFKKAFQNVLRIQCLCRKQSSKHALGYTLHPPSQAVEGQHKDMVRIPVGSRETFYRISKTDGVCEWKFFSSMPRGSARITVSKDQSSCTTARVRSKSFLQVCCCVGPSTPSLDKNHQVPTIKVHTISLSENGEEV

human α2C‐adrenoceptor [2] = molecular target: T1, human α2C‐adrenoceptor; details: for % inhibition, CRE‐SPAP (with forskolin): % inhibition from the 3 μM forskolin control, mean ± SEM; for Log EC50 (Gs), CRE‐SPAP (without forskolin): CRE‐SPAP production in the absence of forskolin
human α2C‐adrenoceptor [3] = molecular target: T1, human α2C‐adrenoceptor; test: 3H‐rauwolscine whole cell binding in CHO‐α2C cells; set-up: expressed in transfected cells; host or cells: CHO-K1 with CRE-SPAP reporter; details: 3H‐rauwolscine whole cell binding
α1D‐adrenoceptor = molecular target: T3, α1D‐adrenoceptor (Homo sapiens, UniProt P25100); details: CHO-α1D cells
T3 sequence (P25100 1-572): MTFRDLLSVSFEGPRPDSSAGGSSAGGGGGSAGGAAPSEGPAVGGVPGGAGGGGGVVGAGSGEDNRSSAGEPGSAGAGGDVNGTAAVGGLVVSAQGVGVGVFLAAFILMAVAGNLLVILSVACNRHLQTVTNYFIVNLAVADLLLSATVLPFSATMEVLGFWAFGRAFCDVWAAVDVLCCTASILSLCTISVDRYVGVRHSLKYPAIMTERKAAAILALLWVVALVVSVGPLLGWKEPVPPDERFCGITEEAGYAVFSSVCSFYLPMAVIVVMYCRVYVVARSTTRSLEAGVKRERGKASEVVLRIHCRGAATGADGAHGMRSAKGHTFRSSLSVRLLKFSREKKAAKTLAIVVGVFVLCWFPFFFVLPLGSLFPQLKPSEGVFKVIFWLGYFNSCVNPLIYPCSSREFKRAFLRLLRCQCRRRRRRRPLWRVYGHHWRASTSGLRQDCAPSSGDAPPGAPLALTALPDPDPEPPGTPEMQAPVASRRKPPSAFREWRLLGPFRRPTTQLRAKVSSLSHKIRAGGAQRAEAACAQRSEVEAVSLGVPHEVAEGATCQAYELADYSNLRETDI

[4] = tested on: parent CHO cells (no transfected receptor); test: ERK1/2‐phosphorylation in parent CHO cells; type: cell-based, Chinese hamster; details: Cricetulus griseus, read-out: log EC50, ERK1/2‐phosphorylation in parent CHO cells (converted)
human α2A‐adrenoceptor [5] = molecular target: T4, human α2A‐adrenoceptor (Homo sapiens, UniProt P08913); test: ERK1/2‐phosphorylation in CHO‐α2A cells; type: cell-based; set-up: expressed in transfected cells; host or cells: CHO-K1 with CRE-SPAP reporter; details: CHO‐α2A, maximum response compared to 10 μM PDBu
T4 sequence (P08913 1-465): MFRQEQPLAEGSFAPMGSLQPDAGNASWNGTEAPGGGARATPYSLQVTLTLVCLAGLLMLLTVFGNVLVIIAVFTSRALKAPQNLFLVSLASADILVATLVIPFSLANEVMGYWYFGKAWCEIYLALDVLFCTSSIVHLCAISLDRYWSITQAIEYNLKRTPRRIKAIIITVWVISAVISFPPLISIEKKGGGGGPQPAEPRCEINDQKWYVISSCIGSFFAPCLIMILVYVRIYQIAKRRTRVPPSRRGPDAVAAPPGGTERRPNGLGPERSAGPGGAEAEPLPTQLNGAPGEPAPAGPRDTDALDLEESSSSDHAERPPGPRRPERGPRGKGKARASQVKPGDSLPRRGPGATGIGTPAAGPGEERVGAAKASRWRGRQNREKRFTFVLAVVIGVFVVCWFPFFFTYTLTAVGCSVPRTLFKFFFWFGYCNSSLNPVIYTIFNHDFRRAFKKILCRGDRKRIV

human α2A‐adrenoceptor [6] = molecular target: T4, human α2A‐adrenoceptor

Compound | % 10 μM PDBu, ERK1/2‐phosphorylation (human α2C‐adrenoceptor [1]) | Log EC50, ERK1/2‐phosphorylation (human α2C‐adrenoceptor [1]; given as negative log EC50, mean ± SEM) | higher α1A‐affinity than for any other α‐adrenoceptor (α1A‐adrenoceptor) | Log efficacy ratio (KD/IC50) (human α2C‐adrenoceptor [2]) | % inhibition, CRE‐SPAP (with forskolin) (human α2C‐adrenoceptor [2]; CHO‐α2C cells) | Log EC50 (Gs), CRE‐SPAP (without forskolin) (human α2C‐adrenoceptor [2]; CHO‐α2C cells) | Log IC50 (Gi), CRE‐SPAP (with forskolin) (human α2C‐adrenoceptor [2]; CHO‐α2C cells, inhibition of 3 μM forskolin‐stimulated CRE‐SPAP production, given as negative log IC50, mean ± SEM) | IC50 (human α2C‐adrenoceptor [3]; no KD obtained, read-out: IC50 in binding, CHO‐α2C) | IC50 (log) in binding, no KD obtained (human α2C‐adrenoceptor [3]; CHO‐α2C cells, printed as log value in the Log KD column) | specific binding inhibited (early plateau) (α1D‐adrenoceptor) | EC50 [4] | % 10 μM PDBu, ERK1/2‐phosphorylation (human α2A‐adrenoceptor [5]) | % 3 μM forskolin, CRE‐SPAP (without forskolin) (human α2A‐adrenoceptor [6]) | IC50 (human α2C‐adrenoceptor [2]; Log IC50 (Gi), CRE‐SPAP (with forskolin), CHO‐α2C cells, inhibition of 3 μM forskolin‐stimulated CRE‐SPAP production, given as negative log IC50, mean ± SEM) | Kd (human α2C‐adrenoceptor [3]; living cells, negative log KD, mean ± SEM, read-out: Log KD, CHO‐α2C (converted)) | Kd (human α2C‐adrenoceptor [3]; CHO‐α2C cells, given as negative log KD, mean only (SEM in Table 4), read-out: Log KD (converted))
CS(=O)(=O)Nc1c(O)ccc2c1CCCC2C1=NCCN1 (stereo not shown) [A61603] | 149.2 ± 30.3% | −7.26 ± 0.15 | 1000 fold | >2.68 | 80.5 ± 3.0% | No response | −6.68 ± 0.09 | > 100000 nM | IC50 > −4 | – | – | – | – | – | – | –
CC(C)C[C@H]1C(=O)N2CCC[C@H]2[C@]2(O)O[C@](NC(=O)[C@@H]3C=C4c5cccc6[nH]c(Br)c(c56)C[C@H]4N(C)C3)(C(C)C)C(=O)N12 [Bromocriptine] | – | – | – | – | – | – | – | – | – | 71.2 ± 3.4% | 117 nM | – | – | – | – | –
Clc1ccc2nsnc2c1NC1=NCCN1 [Tizanidine] | 133.6 ± 17.9% | – | – | – | 72.1 ± 4.4% | No response | – | – | – | – | – | 135.7 ± 17.3% | 15.8 ± 4.7% | 302 nM | 1480 nM | 1480 nM
